Source: patent US8163788B2, “Low-molecular inhibitors of cytohesin-family guanine nucleotide exchange factors” (Rheinische Friedrich-Wilhelms Universitat Bonn, priority 2004, dated 2012)
pIC50: −log10 of the molar value.

How the values were obtained:
[1] = system: human peripheral blood cells (PBL); assay: adhesion of human peripheral blood cells (PBL) to ICAM-1 after stimulation with OKT3 or PMA; format: cell-based; conditions: FIG. 1
Text: Human peripheral blood cells (PBL) were stimulated with agonists that activate a beta-2 integrin-dependent adhesion. In these primary human lymphocytes, the beta-2 integrin-dependent adhesion can be activated by cytohesins at the specific ligands ICAM-1.
The agonists employed were the monoclonal antibody OKT3 (hybridome of ATCC, mAb OKT3 purified on protein A, according to standard methods from Current Protocols in Immunology, 5th Ed., Coligan et al., Edts, Wiley 2004) against the CD3 complex, a T-cell receptor and phorbolester (PMA), which non-physiologically activates intracellular signal cascades in human PBL including integrin-dependent adhesion while circumventing cytohesins.
Cells from human blood were isolated according to standard methods (Current Protocols in Immunology, 5th Ed., 2004, Coligan et al., Edts, Wiley). Cell culture dishes coated with ICAM-1 were produced by means of recombinant ICAM-1-Fc fusion protein (Kolanus, W. et al., Cell 86, 233-42 (1996), Geiger, C. et al., EMBO J., 19, 2525-2536 (2000)). 300,000 human peripheral blood cells (PBL) were stimulated for 30 minutes with 2 μg/ml of OKT3 or 40 ng/ml of phorbolester (PMA) in Hank's BSS, (Gibco; composition (g/l): CaCl2x2H2O (0.185), KCl (0.4), KH2PO4 (0.06), MgCl2x6H2O (0.1), MgSO4x7H2O (0.1), NaCl (8.0), NaHCO3 (0.35), Na2HPO4 (0.048), D-glucose (1.0)), and placed for one hour in Hank's BSS onto the ICAM-1 coated cell culture dishes, whereby the agonists were not removed. Non-bound cells were removed by washing with Hank's BSS. The percentage of bound cells was determined by counting under a microscope using a standard counting grid.

[2] = system: human dendritic cells; assay: migration (chemotaxis) of dendritic cells in modified Boyden chambers on ICAM-1; format: cell-based; conditions: 1 μM, 10 μM or 15 μM, 96 hours; chemokines CCL19 or CXCL12; FIG. 5
Description: Dendritic cells were produced in vitro by means of differentiation factors (IL-4 and GM-CSF) from blood monocytes that were isolated from peripheral mononuclear cells (PBMC) by Ficoll density gradient centrifugation from the human blood of anonymous donors.
The blood was mixed at a ratio of 1:1 with PBS (KCl 0.2 g/l, KH2PO4 0.2 g/l, NaCl 8 g/l, Na2HPO4 1.15 g/l, PAA, Cölbe)/2 mM EDTA and layered onto half the volume of Ficoll. Centrifugation was carried out at 300×g, 30 minutes with no brake. After the centrifugation, a centered white band appeared which contained the PBMC. This was picked up with PBS/2 mM EDTA, filled up to 50 ml and subjected to several washing steps at 640×g, 500×g, 400×g, 300×g and 200×g. Subsequently, the cells were picked up in a titer of 5×10^6/ml in “VLE-RPMI+/+”-medium (Biochrom, Berlin, containing 10% fetal calf serum (FCS) and 1% penicillin/streptomycin) and incubated for 90 minutes in an incubator at 37° C. [98.6° F.] and 5% CO2. During this time, the monocytes adhere to the bottom of the culture dish. […]
The quantitative analysis of the cell migration was carried out in modified Boyden chambers consisting of a 24-hole plate into which the Transwell® filters with a 5 μm pore size had been placed. […] [98.6° F.] and 5% CO2 in the incubator and subsequently, the number of cells that had migrated into the lower chamber in the direction of the chemokine was determined. […]

COc1nc(-c2ccc3c(c2)OCO3)n(-c2ccc(NC(=O)CSc3ccccc3)cc2)n1 [Compound 9]
pIC50 ([1]; Homo sapiens, cells stimulated with OKT3, units given within the value, read-out: IC50 of inhibition of adhesion of PBL to ICAM-1): 6.00 to 6.30
effect on adhesion of PBL to ICAM-1 ([1]; cells activated by phorbolester (PMA)): not influenced
inhibition of the migration of dendritic cells on the substrate ICAM-1 [2]: concentration-dependent inhibition
